In the NIST ThermoML archive (doi:10.1016/j.tca.2013.03.025):
Numbers after ± are expanded uncertainties.

Assay: xn = mol fraction of the nth substance listed
Conditions: 101 kPa, Liquid; for viscosity: Concentric cylinders viscometry; for mass density: Vibrating tube method

## CCCCOC(=O)C(C)O (stereo not given) [butyl 2-hydroxypropanoate] + OCCCO
288.15 K, x1 = 0.0999
  viscosity: 55.22 ± 0.56 mPa·s
  mass density: 1046.52 ± 0.36 kg/m3
288.15 K, x1 = 0.2
  viscosity: 41.92 ± 0.46 mPa·s
  mass density: 1037.84 ± 0.47 kg/m3
288.15 K, x1 = 0.3001
  viscosity: 31.27 ± 0.37 mPa·s
  mass density: 1029.39 ± 0.59 kg/m3
288.15 K, x1 = 0.4
  viscosity: 22.91 ± 0.28 mPa·s
  mass density: 1022.24 ± 0.72 kg/m3
288.15 K, x1 = 0.4999
  viscosity: 16.95 ± 0.22 mPa·s
  mass density: 1015.45 ± 0.87 kg/m3
288.15 K, x1 = 0.5999
  viscosity: 12.66 ± 0.18 mPa·s
  mass density: 1009.2 ± 1 kg/m3
288.15 K, x1 = 0.6996
  viscosity: 9.596 ± 0.14 mPa·s
  mass density: 1003.51 ± 1.2 kg/m3
288.15 K, x1 = 0.8001
  viscosity: 7.373 ± 0.12 mPa·s
  mass density: 997.914 ± 1.4 kg/m3
288.15 K, x1 = 0.9
  viscosity: 5.629 ± 0.093 mPa·s
  mass density: 992.76 ± 1.6 kg/m3
288.15 K, x1 = 1
  viscosity: 4.628 ± 0.081 mPa·s
  mass density: 987.269 ± 1.8 kg/m3
293.15 K, x1 = 0.0999
  viscosity: 42.99 ± 0.45 mPa·s
  mass density: 1043.16 ± 0.36 kg/m3
293.15 K, x1 = 0.2
  viscosity: 32.73 ± 0.36 mPa·s
  mass density: 1034.24 ± 0.46 kg/m3
293.15 K, x1 = 0.3001
  viscosity: 24.47 ± 0.29 mPa·s
  mass density: 1025.58 ± 0.58 kg/m3
293.15 K, x1 = 0.4
  viscosity: 18.13 ± 0.23 mPa·s
  mass density: 1018.23 ± 0.71 kg/m3
293.15 K, x1 = 0.4999
  viscosity: 13.54 ± 0.18 mPa·s
  mass density: 1011.25 ± 0.86 kg/m3
293.15 K, x1 = 0.5999
  viscosity: 10.21 ± 0.14 mPa·s
  mass density: 1004.84 ± 1 kg/m3
293.15 K, x1 = 0.6996
  viscosity: 7.805 ± 0.12 mPa·s
  mass density: 999.008 ± 1.2 kg/m3
293.15 K, x1 = 0.8001
  viscosity: 6.064 ± 0.095 mPa·s
  mass density: 993.26 ± 1.4 kg/m3
293.15 K, x1 = 0.9
  viscosity: 4.686 ± 0.077 mPa·s
  mass density: 987.976 ± 1.6 kg/m3
293.15 K, x1 = 1
  viscosity: 3.88 ± 0.068 mPa·s
  mass density: 982.366 ± 1.8 kg/m3
298.15 K, x1 = 0.0999
  viscosity: 33.94 ± 0.35 mPa·s
  mass density: 1039.79 ± 0.36 kg/m3
298.15 K, x1 = 0.2
  viscosity: 25.91 ± 0.29 mPa·s
  mass density: 1030.62 ± 0.46 kg/m3
298.15 K, x1 = 0.3001
  viscosity: 19.59 ± 0.23 mPa·s
  mass density: 1021.73 ± 0.57 kg/m3
298.15 K, x1 = 0.4
  viscosity: 14.51 ± 0.18 mPa·s
  mass density: 1014.19 ± 0.71 kg/m3
298.15 K, x1 = 0.4999
  viscosity: 10.96 ± 0.14 mPa·s
  mass density: 1007.03 ± 0.85 kg/m3
298.15 K, x1 = 0.5999
  viscosity: 8.355 ± 0.12 mPa·s
  mass density: 1000.47 ± 1 kg/m3
298.15 K, x1 = 0.6996
  viscosity: 6.444 ± 0.096 mPa·s
  mass density: 994.488 ± 1.2 kg/m3
298.15 K, x1 = 0.8001
  viscosity: 5.056 ± 0.079 mPa·s
  mass density: 988.587 ± 1.4 kg/m3
298.15 K, x1 = 0.9
  viscosity: 3.957 ± 0.066 mPa·s
  mass density: 983.173 ± 1.6 kg/m3
298.15 K, x1 = 1
  viscosity: 3.307 ± 0.058 mPa·s
  mass density: 977.448 ± 1.8 kg/m3
303.15 K, x1 = 0.0999
  viscosity: 27.14 ± 0.28 mPa·s
  mass density: 1036.41 ± 0.35 kg/m3
303.15 K, x1 = 0.2
  viscosity: 20.8 ± 0.23 mPa·s
  mass density: 1026.99 ± 0.45 kg/m3
303.15 K, x1 = 0.3001
  viscosity: 15.82 ± 0.19 mPa·s
  mass density: 1017.87 ± 0.57 kg/m3
303.15 K, x1 = 0.4
  viscosity: 11.86 ± 0.15 mPa·s
  mass density: 1010.14 ± 0.7 kg/m3
303.15 K, x1 = 0.4999
  viscosity: 8.984 ± 0.12 mPa·s
  mass density: 1002.79 ± 0.84 kg/m3
303.15 K, x1 = 0.5999
  viscosity: 6.919 ± 0.097 mPa·s
  mass density: 996.07 ± 1 kg/m3
303.15 K, x1 = 0.6996
  viscosity: 5.405 ± 0.08 mPa·s
  mass density: 989.946 ± 1.2 kg/m3
303.15 K, x1 = 0.8001
  viscosity: 4.286 ± 0.067 mPa·s
  mass density: 983.896 ± 1.4 kg/m3
303.15 K, x1 = 0.9
  viscosity: 3.386 ± 0.056 mPa·s
  mass density: 978.359 ± 1.6 kg/m3
303.15 K, x1 = 1
  viscosity: 2.86 ± 0.05 mPa·s
  mass density: 972.515 ± 1.8 kg/m3
